Assay results reported in patent publication US20120058200A1, “PROCESS FOR THE PREPARATION OF LANTHANUM CARBONATE DIHYDRATE” (Natco Pharma Limited, priority 2009, published 2012).

Experiments:
[1] = Phosphate binding studies of various lanthanum carbonate hydrates; conditions: for % Phosphate removed: two-fold molar excess of lanthanum carbonate hydrate over phosphate; for Peak phosphate binding: in about 7 times (so in the source)
Procedure: To study the phosphate binding activity of lanthanum carbonate dihdyrate, other hydrates of lanthanum carbonate (monohydrate, tetrahydrate and hexahydrate) were prepared. • a) A stock solution of standard phosphate was prepared by dissolving 13.75 g of Na2HPO4 in 1 L deionised water after adjusting the pH to 3.0 with […]. • b) Above stock solution (5 ml) was diluted with 90 ml water adjusted the pH to 3.0 with conc. HCl and made up to 100 ml with water. • c) A two-fold molar excess of Lanthanum carbonate hydrate over phosphate was weighed accurately according to the molecular weight and added to solution b). • d) Sampling was carried out at different time intervals 1, 3, 5, 7, and 10 min. […] Peak phosphate binding exceeding 99% is achieved with the dihydrate in about 7 times whereas only 81% is achieved with the tetrahydrate.

[2] = room temperature

Row | Structure (SMILES) | % Phosphate removed ([1]; 1 min, pH 3.0) [%] | % Phosphate removed ([1]; 3 min, pH 3.0) [%] | % Phosphate removed ([1]; 5 min, pH 3.0) [%] | % Phosphate removed ([1]; 7 min, pH 3.0) [%] | % Phosphate removed ([1]; 10 min, pH 3.0) [%] | Peak phosphate binding ([1]; pH 3.0) | Phosphate binding speed ([1]; at all points (1-10 min), pH 3.0) | Performance in phosphate binding studies ([1]; over standard lanthanum carbonate tetrahydrate) | Stability [2]
1 | O.O.O.O.O.O.O=C([O-])[O-].O=C([O-])[O-].O=C([O-])[O-].[La+3].[La+3] [Hexahydrate] | 57.10 | 60.10 | 79.73 | 76.12 | 81.15 |  |  |  | 
2 | O.O=C([O-])[O-].O=C([O-])[O-].O=C([O-])[O-].[La+3].[La+3] [Monohydrate] | 82.73 | 90.05 | 87.10 | 91.72 | 98.30 |  |  |  | 
3 | O.O.O.O.O=C([O-])[O-].O=C([O-])[O-].O=C([O-])[O-].[La+3].[La+3] [Tetrahydrate, lanthanum carbonate tetrahydrate] | 64.05 | 73.64 | 87.20 | 81.21 | 82.80 | 81% |  |  | 
4 | O.O.O=C([O-])[O-].O=C([O-])[O-].O=C([O-])[O-].[La+3].[La+3] [Dihydrate, lanthanum carbonate dihydrate] | 94.00 | 93.00 | 93.00 | 99.45 | 99.17 | exceeding 99% | relatively very fast | improved performance | stable
